# Source: publication PMC10816640, “Discovery of Novel Diphenyl Acrylonitrile Derivatives That Promote Adult Rats’ Hippocampal Neurogenesis” (International Journal of Molecular Sciences, 2024)
# “And” between values parts separate entries of the source, which are not always exact repeats. Equal entries are not always repeated. Marks after values point to notes of the source that are not given here.
# Legend:
# [1] = system: newborn cells in the subgranular zone; assay: BrdU+ newborn cells, rats sacrificed 28 days after BrdU; format: in vivo, rat; details: nine-week-old rats (n = 2), i.p. 4.0 mg/kg/day for 28 days, BrdU pulse, Figure 7A
# Description: The study employed a rat model, wherein nine-week-old rats were administered intraperitoneally with the compound at a dose of 4.0 mg/kg/day for 28 days and then treated with a pulse of BrdU. Instead of sacrificing the rats 24 h after the BrdU injections, the rats were sacrificed after another 28 days. The brains were then isolated and cryosectioned. Eight randomly selected slices were subjected to immunohistochemical staining. This staining enabled the co-localization of the BrdU-incorporated cells with the NeuN marker, enabling the definition of the compounds that could promote the differentiation of newborn neural progenitor cells into mature functional neurons. The compounds were dissolved in reagent-grade soybean oil containing 10% ethanol to reach a drug concentration of 2.8 mg/mL. The rats in the experimental group received intraperitoneal injections of the compounds at a dose of 4.0 mg/kg/d for 28 consecutive days. As a control, the vehicle group was administered injections of reagent-grade soybean oil containing 10% ethanol. BrdU (Sigma-Aldrich, St. louis, MA, USA) solution, prepared in physiological saline at a concentration of 10 mg/mL, was administered to all rats on day 29. Each rat received two injections of BrdU at a dosage of 50 mg/kg, with a 2 h interval between injections. The rats were euthanized 24 h (or 28 days) after the final BrdU injection. Two or four rats per group were anesthetized using pentobarbital sodium (70 mg/kg) and subsequently perfused with physiological saline. The brain tissue was carefully dissected and fixed in 4% paraformaldehyde at 4 °C for one week. Next, the brain tissue underwent dehydration using a phosphate-buffered saline (PBS) solution containing 20% to 30% sucrose. Finally, the brain tissue was cryosectioned into slices with a thickness of 30 μm, and eight slices were randomly selected for further analysis. The assessment of new cell proliferation was conducted using BrdU staining. To eliminate endogenous peroxides, sections were exposed to 1% H2O2 for 30 min at RT. Cellular denaturation was achieved by treating the sections with 2 M HCl at 37 °C for 1 h, followed by rinsing in 0.1 M borate buffer (pH 8.5). Tissue sections were subjected to blocking in a solution consisting of 5% goat serum and 0.5% Triton X-100 in PBS at RT for 1–2 h. The specimens were then incubated overnight at 4 °C with a mouse primary antibody specific to BrdU (diluted at 1:500; Millipore, Billerica, MA, USA). Subsequently, the DAB kit was employed for 2 h of incubation at RT. The differentiation process of NPCs was visualized through the utilization of the NeuN/BrdU double staining technique. Tissue sections were subjected to an incubation period in a blocking buffer at RT for 1 to 2 h. The specimens were exposed to a rabbit anti-NeuN antibody (diluted at 1:500, Abcam, Cambridge, MA, UK) and a primary antibody, BrdU (diluted at 1:500), overnight at 4 °C. Afterwards, the sections were treated with anti-mouse 488 and anti-rabbit TRITC secondary antibodies for 2 h at RT. The data were presented as mean ± SEM (standard error of the mean) and visualized using GRAPHPAD PRISM 6 (Graphpad Software, La Jolla, CA, USA). Statistical analysis was conducted utilizing one-way analysis of variance (ANOVA) followed by a post hoc test. Subsequent to the statistical treatment, the observed discrepancies were determined to be statistically significant (p < 0.05).
# [2] = Pharmacokinetic study, plasma; format: in vivo, SD rats; details: rat blood/plasma, 4 mg/kg i.p.
# Description: (§1) The SD rats (approximately 200 g) were randomly assigned to eight groups, with each group comprising three rats. All experimental procedures were carried out in accordance with the ethical guidelines outlined by the Ethics Committee of the Beijing Institute of Technology. The administration medium consisted of a combination of 5% dimethyl sulfoxide (DMSO) and 95% soybean oil. The drug was administered intraperitoneally at a dose of 4 mg/kg. Prior to the experiment, the experimental animals were subjected to a 12 h fasting period with free access to water. Following drug administration, blood samples were collected from the rat’s orbital vein at predetermined time points. The collected blood was then placed in sodium heparin anticoagulation tubes. The rats were euthanized, and their brain tissues were carefully extracted and loaded into 5 mL EP tubes. The collection time points for plasma and brain tissue samples were as follows: 0 min, 15 min, 30 min, 1 h, 2 h, 4 h, 8 h, and 24 h. Within 2 h after collection, the blood samples were centrifuged at 6000 rpm for 10 min at a temperature of 4 °C. The resulting samples were then stored in a −20 °C refrigerator.
# (§2) Tissue samples were first weighed and homogenized to ensure consistent testing conditions. The determination of original compound concentrations in plasma and tissue homogenates was performed using LC-MS/MS. Specifically, 50 μL of plasma or tissue samples were mixed with 50 μL of propranolol and 100 μL of acetonitrile for protein precipitation. The resulting mixture was then centrifuged at 12,000 rpm for 5 min, and the supernatant was diluted and analyzed through LC-MS/MS. The liquid chromatography was conducted on a Thermo Scientific Q Exactive HF-X instrument (Thermo Fisher Scientific, Waltham, MA, USA), employing an ACQUITY UPLC BEH C18 Column with dimensions of 130 Å, 1.7 µm, 2.1 mm × 100 mm. Additionally, a pre-column equipped with an ACQUITY UPLC BEH C18 VanGuard Pre-Column (130 Å, 1.7 µm, 2.1 mm × 5 mm) was utilized. The liquid phase method employed gradient elution with mobile phases consisting of acetonitrile and a 0.1% formic acid aqueous solution. Mass spectrometry was conducted in positive ion mode. The quantification of drug concentration in plasma samples was performed using the internal standard method, and the obtained pharmacokinetic parameters were calculated using Phoenix WinNonlin 7.0 software.
# [3] = Pharmacokinetic study, brain tissue distribution; format: in vivo, SD rats; details: 4 mg/kg i.p.
# Description: as §1
# as §2, with “Additionally, a pre-column equipped with an ACQUITY UPLC BEH C18 VanGuard Pre-Column (130 Å, 1.7 µm, 2.1 mm × 5 mm) was utilized. The liquid phase method employed gradient elution with mobile phases consisting of acetonitrile and a 0.1% formic acid aqueous solution. Mass spectrometry was conducted in positive ion mode.” left out
AUC0–inf [2],CL [2],MRT [2],T1/2 [2],Tmax [2],Vz [2],AUC0–24h ([2]; n = 3),Cmax ([2]; n = 3),"Cmax ([3]; rat brain tissue, n = 3)","AUC0–24h ([3]; rat brain tissue, n = 3, 4 mg/kg)",Ratio = Cmax of Brain/Cmax of Blood ([3]; rat),SMILES,proliferative activity over the longer 28 day period (number of BrdU+ cells) [1]
–,–,–,–,–,–,–,–,–,–,–,"CC(C)C(=O)Nc1ccc(/C(C#N)=C/c2ccc3c(c2)OCO3)cc1 [29b, (Z)-N-(4-(2-(benzo[d][1, 3]dioxol-5-yl)-1-cyanovinyl)phenyl)isobutyramide]",could promote the proliferation of progenitors
385 ± 82.3 ng·h/mL,"10,770 ± 2616 mL/h/kg",2.46 ± 0.14 h,2.23 h,1.5 h,"32,829 ± 4581 mL/kg",383 ± 84.4 ng·h/mL,132 ± 9 ng/mL,168 ± 47 ng/g,608 ng·h/g and 608 ± 220 ng·h/g,1.28 ^a,"CC(C)C(=O)Nc1ccc(/C=C(\C#N)c2ccc3c(c2)OCO3)cc1 [32b, (Z)-N-(4-(2-(benzo[d][1, 3]dioxol-5-yl)-2-cyanovinyl)phenyl)isobutyramide]",–
